Assay results reported in US12030886B2, “Form of ponatinib” (MACFARLAN SMITH LIMITED, priority 2018, dated 2024).

Assay: Solid-form stability under stressed conditions (temperature/relative humidity)
Format: physicochemical
Conditions: for at least four weeks
Experimental: Form Z of acetic acid solvated hydrate of ponatinib hydrochloride is stable under stressed conditions of about 40° C./75% RH and about 25° C./97% RH for at least four weeks.

## Cc1ccc(C(=O)Nc2ccc(CN3CCN(C)CC3)c(C(F)(F)F)c2)cc1C#Cc1cnc2cccnn12 [3-(imidazo[1,2-b]pyridazin-3-ylethynyl)-4-methyl-N-{4-[(4-methylpiperazin-1-yl)methyl]-3-(trifluoromethyl)phenyl}benzamide]
About 25° C./97% RH
  stability under stressed conditions: stable
About 40° C./75% RH
  stability under stressed conditions: stable
